The record followed here is patent publication US20100173888A1 (Pfizer Inc, priority 2008, published 2010).

human recombinant H-PGDS, sequence (O60760 whole entry): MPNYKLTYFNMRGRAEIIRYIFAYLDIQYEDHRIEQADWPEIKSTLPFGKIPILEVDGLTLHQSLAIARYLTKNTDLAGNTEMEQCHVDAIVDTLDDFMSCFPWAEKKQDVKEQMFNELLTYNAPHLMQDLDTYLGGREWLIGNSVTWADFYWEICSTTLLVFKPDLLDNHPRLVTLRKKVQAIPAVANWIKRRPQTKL

The assay deals with human recombinant H-PGDS (Homo sapiens, UniProt O60760). Nature of the assay: Slightly modified fluorescence intensity h-PGDS TBA enzyme assay (1:40,000 enzyme, 40 second reaction, 1/2 log dilutions, top concentration typically 10 μM). The settings on record: slightly modified assay: 1:40,000 human recombinant H-PGDS. It counts as biochemical. The procedure, abridged:
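Enzyme pre-incubated 10 min at room temperature with inhibitor in 100 mM Trizma pH 8.0, 100 μM MgCl2, 0.1 mg/ml rabbit IgG, 2.5 mM glutathione, 0.5% DMSO; reaction started with 5.0 μM PGH2 and stopped with FeCl2/citric acid. Remaining PGH2 quantified as MDA–TBA fluorescence (ex 530/em 560 nm); IC50 from 4-parameter fit, 11 concentrations in duplicate.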
Turning to `CN1CCN(C(=O)C2(C)CCC(NC(=O)c3ccc(-c4cccc(F)c4)nc3)CC2)CC1` (stereo not drawn) [Example 118, 6-(3-Fluorophenyl)-N-{cis-4-methyl-4-[(4-methylpiperazin-1-yl)carbonyl]cyclohexyl}nicotinamide], the IC50 was 0.0512 µM.

For the compound `CCn1cnc2c1CCC(NC(=O)c1ccc(-c3cccc(F)c3)nc1)C2` (centres unmarked) [Example 126, N-(1-Ethyl-4,5,6,7-tetrahydro-1H-benzoimidazol-5-yl)-6-(3-fluoro-phenyl)-nicotinamide], the 50% inhibitory concentration (IC50) was determined as 0.00407 µM.

For the compound `O=C(NC1CCc2ncccc2C1)c1ccc(-c2cccc(F)c2)nc1` (centres unmarked) [Example 127, 6-(3-Fluorophenyl)-N-(5,6,7,8-tetrahydroquinolin-6-yl)nicotinamide], the IC50 amounted to 0.00503 µM.

As to `O=C(NC1CCCc2cccnc21)c1ccc(-c2cccc(F)c2)nc1` (centres unmarked) [Example 128, 6-(3-Fluorophenyl)-N-(5,6,7,8-tetrahydroquinolin-8-yl)nicotinamide], the IC50 turned out to be 0.179 µM.

In the case of “N-{cis-3-[(3-aminocyclohexyl)carbamoyl]cyclohexyl}-6-(3-fluorophenyl)nicotinamide N-{trans-3-[(3-aminocyclohexyl)carbamoyl]cyclohexyl}-6-(3-fluorophenyl)nicotinamide [Example 64D]”, the IC50 stood at 0.0147 µM.
